The text below walks through data of ChEMBL document CHEMBL1201862, “PubChem BioAssay data set” (2004).

The structures appear in SMILES notation.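 All cell lines were grown in 96-well plates and treated with compound for 48 hours. Here, GI50 denotes the concentration required for 50% inhibition of growth.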 Calls of active or inactive are those of the source. No stated cut-off is given here; in the data, active = GI50 up to about 1.1 µM and inactive = higher.

Among the test systems are SNB-78; LXFL 529; KM-20L2; XF498; DMS-273; HOP-18; M19-MEL; DLD-1; RXF 631.
Test in all cases: DTP human tumour cell line panel, 48 h

What is called GI50 is the concentration that inhibits growth by half. Take `CC(=O)[C@]1(O)Cc2c(O)c3c(c(O)c2[C@@H](OC2CC(N)C(O)C(C)O2)C1)C(=O)c1c(OCc2ccccc2)cccc1C3=O` (stereo partly drawn): the GI50 in the assay on SNB-78 is 4.38 µM (inactive); with LXFL 529, 1.14 µM (inactive); with KM-20L2, 1.15 µM (inactive); in the assay on XF498, 1.6 µM (inactive); with DMS-273, 0.302 µM (active); in the assay on HOP-18, 1.71 µM (inactive).
Regarding `Cc1ccc(S(=O)(=O)C(C#N)c2nc3ccccc3nc2-n2ccnc2)cc1` (stereo not drawn), the GI50 in the assay on M19-MEL, in the assay with DLD-1, with SNB-78, in the assay on LXFL 529, in the assay on XF498 and with DMS-273 was > 100 µM (inactive) throughout. For the same molecule, the GI50 in the assay on HOP-18 is > 100 µM (inactive).
As for `O=c1c2ccccc2nc2n1-c1ccccc1SC2`, the GI50 is 67.1 µM (inactive) with M19-MEL; 55.5 µM (inactive) in the assay on DLD-1; > 100 µM (inactive) in the assay with SNB-78; 34.4 µM (inactive) with LXFL 529; > 100 µM (inactive) with KM-20L2; 30.6 µM (inactive) in the assay on XF498. Besides, the figures for the GI50 with DMS-273 and with RXF 631 were 47.2 µM (inactive) and 93.5 µM (inactive), respectively.
For `Cc1cc(N(CCC#N)CCC#N)ccc1/N=N/c1ccc([N+](=O)[O-])cc1`, the GI50 with M19-MEL is > 100 µM (inactive); in the assay with SNB-78, 34.1 µM (inactive); in the assay on KM-20L2 it was > 100 µM (inactive); with DMS-273 it was 17 µM (inactive).
For the molecule `Nc1nc(N)c2ncn(CCOC(c3ccccc3)P(=O)(O)O)c2n1` (stereo not drawn), the GI50 in the assay with M19-MEL, in the assay with DLD-1, in the assay with SNB-78, in the assay with KM-20L2, in the assay with XF498 and in the assay on DMS-273 was > 100 µM (inactive) in each case.
For the molecule `Cc1cc(C2CCCCC2)n(O)c(=O)c1` [CICLOPIROX OLAMINE], the GI50 is 7.52 µM (inactive) in the assay with M19-MEL; 5.46 µM (inactive) in the assay with DLD-1; 4.2 µM (inactive) in the assay on LXFL 529; 12 µM (inactive) in the assay with KM-20L2; 10.7 µM (inactive) in the assay with XF498; 5.37 µM (inactive) with RXF 631. Moreover, the GI50 in the assay with HOP-18 is 39.8 µM (inactive).
For the molecule `N#CN1CCC=C(c2cc3ccccc3[nH]2)C1`, the GI50 in the assay with M19-MEL was 243 µM (inactive); in the assay on DLD-1, 370 µM (inactive); with LXFL 529, 236 µM (inactive); in the assay on KM-20L2, > 448 µM (inactive); in the assay on DMS-273, 428 µM (inactive); in the assay on RXF 631, 281 µM (inactive). Further, the GI50 in the assay on HOP-18 is > 448 µM (inactive).
Take `COc1cc(C(=O)CC2(O)C(=O)Nc3c(Cl)cc(Cl)cc32)ccc1O` (stereo not drawn): the GI50 is 41.9 µM (inactive) in the assay with DLD-1; 87.9 µM (inactive) in the assay with SNB-78; 27.9 µM (inactive) in the assay on LXFL 529; 61.4 µM (inactive) with KM-20L2; 48.3 µM (inactive) in the assay with XF498; 53 µM (inactive) in the assay on DMS-273. Further, the GI50 in the assay on RXF 631 is > 100 µM (inactive); with HOP-18, 34.4 µM (inactive).
Consider `CCOC(=O)C(=O)Nc1c(C)cccc1CC`, for which the GI50 in the assay with M19-MEL, with DLD-1, in the assay with SNB-78, in the assay with LXFL 529, in the assay on KM-20L2 and with XF498 was > 100 µM (inactive) each time. The GI50 in the assay with RXF 631 and with HOP-18 was > 100 µM (inactive) throughout.
`O=[N+]([O-])c1ccc2nc3ccscc-3c2c1`: the GI50 with M19-MEL is 20.1 µM (inactive); in the assay with DLD-1 it was 9.64 µM (inactive); in the assay on SNB-78 it was 23 µM (inactive); with LXFL 529, 13.7 µM (inactive); in the assay with KM-20L2, 25.2 µM (inactive); with XF498, 17.1 µM (inactive). The GI50 in the assay with DMS-273 is 12.2 µM (inactive); in the assay with RXF 631, 14.8 µM (inactive); with HOP-18, 14.1 µM (inactive).
Consider `CC(=O)NC(CCCN(Cc1ccccc1)C(=O)N(CCCl)N=O)C(=O)NCc1ccccc1` (stereo not drawn), for which the GI50 with DLD-1 was 62.7 µM (inactive); in the assay with SNB-78, 54.1 µM (inactive); in the assay with LXFL 529 it was > 100 µM (inactive); in the assay on KM-20L2, 59.6 µM (inactive); in the assay with XF498 it was > 37.8 µM (inactive); with DMS-273 it was 41 µM (inactive). The GI50 with HOP-18 was > 100 µM (inactive).
Turning to `CNS(=O)(=O)NNS(=O)(=O)c1ccc(C)cc1`, the GI50 with M19-MEL, with DLD-1 and with KM-20L2 was > 100 µM (inactive) throughout.
With `NC(=S)N/N=C(\CC1OC(=O)c2ccccc21)c1ccc(Cl)cc1` (stereo not drawn), the GI50 in the assay on M19-MEL is 21.9 µM (inactive); in the assay with DLD-1 it was 41.3 µM (inactive); in the assay on SNB-78, 36.9 µM (inactive); with LXFL 529, 28.8 µM (inactive); in the assay on KM-20L2, 47 µM (inactive); in the assay with XF498 it was 47 µM (inactive). In addition, the GI50 was 41 µM (inactive) in the assay on DMS-273 and 24 µM (inactive) in the assay with RXF 631.
Turning to `NC(CCc1nc(-c2ccc(Cl)cc2)cs1)C(=O)O` (stereo not drawn), the GI50 with M19-MEL, in the assay with DLD-1, in the assay on SNB-78, with LXFL 529, with KM-20L2 and with DMS-273 was > 100 µM (inactive) throughout. The GI50 in the assay with RXF 631 and with HOP-18 was > 100 µM (inactive) each time.
In the case of `Cc1cc(OCC(O)CO)ccc1-c1ccccc1` (stereo not drawn), the GI50 was > 100 µM (inactive) in the assay on M19-MEL; > 100 µM (inactive) in the assay with SNB-78; > 100 µM (inactive) with LXFL 529; > 100 µM (inactive) in the assay on KM-20L2; 37.1 µM (inactive) in the assay on XF498; > 100 µM (inactive) in the assay on DMS-273. Further, the GI50 in the assay with HOP-18 was > 100 µM (inactive).
For `C=CC1(C)/C(=N\O)C(C)(CC)C(=O)N1O` (stereo not drawn), the GI50 in the assay with M19-MEL, with DLD-1, with SNB-78, with LXFL 529, in the assay on XF498 and in the assay with DMS-273 was > 100 µM (inactive) each time. The GI50 in the assay with RXF 631 and with HOP-18 was > 100 µM (inactive) in each case.
As to `O=[N+]([O-])c1ccc2c(Nc3ccccc3-c3ccccc3Nc3c4ccccc4nc4cc([N+](=O)[O-])ccc34)c3ccccc3nc2c1`, the GI50 was 6.56 µM (inactive) in the assay on M19-MEL; 2.63 µM (inactive) with DLD-1; > 100 µM (inactive) in the assay with SNB-78; 2.61 µM (inactive) in the assay with LXFL 529; 5.32 µM (inactive) in the assay on KM-20L2; 1.59 µM (inactive) in the assay on XF498. The results for the GI50 with DMS-273, in the assay with RXF 631 and in the assay with HOP-18 were 4.58 µM (inactive), 5.9 µM (inactive) and > 100 µM (inactive), respectively.
Regarding `CN(C)CCn1cnc2sc3ccccc3c21`, the GI50 with M19-MEL, in the assay with SNB-78, in the assay with LXFL 529, in the assay on KM-20L2, with XF498 and with RXF 631 was > 100 µM (inactive) throughout. Besides, in the assay on HOP-18, the GI50 is 20.2 µM (inactive).
Turning to `Cc1cccc(C)c1NC(=O)CCCC(=O)CC(=O)/C=C/c1ccccc1`, the GI50 in the assay on M19-MEL, in the assay with DLD-1, in the assay on SNB-78, in the assay on LXFL 529, with KM-20L2 and in the assay with XF498 was > 100 µM (inactive) each time. Also, the GI50 in the assay with DMS-273, in the assay on RXF 631 and with HOP-18 was > 100 µM (inactive) in each case.
On to `CN(C)CC(C)(C)C(=O)/C=C/c1ccccc1`, for which the GI50 in the assay on M19-MEL is 16.3 µM (inactive); in the assay with DLD-1 it was 12.6 µM (inactive); in the assay with SNB-78 it was 14.7 µM (inactive); with LXFL 529, 12.3 µM (inactive); in the assay on KM-20L2, 15.3 µM (inactive); in the assay with XF498 it was 11.6 µM (inactive). The GI50 in the assay with DMS-273 is 16.9 µM (inactive); in the assay with HOP-18 it was 17.1 µM (inactive).
On to `COc1cc(C)c2c(c1C)OC(=O)c1c(C)c(Cl)c(O)c(C=O)c1O2`, for which the GI50 with DLD-1 was 11.6 µM (inactive); in the assay on SNB-78 it was 13.2 µM (inactive); with LXFL 529, 13.9 µM (inactive); with KM-20L2, 22.6 µM (inactive); in the assay with XF498, 12.3 µM (inactive); with DMS-273, 14.9 µM (inactive). Besides, the GI50 with RXF 631 was 15.5 µM (inactive).
For the molecule `COCOCC/C=C/C=O`, the GI50 with DLD-1, in the assay on SNB-78, in the assay on LXFL 529, in the assay on KM-20L2, in the assay with XF498 and in the assay with HOP-18 was > 100 µM (inactive) in each case.
On to `O=C1/C(=C/c2cccc([N+](=O)[O-])c2)COc2ccccc21`, for which the GI50 is 2.32 µM (inactive) in the assay on M19-MEL; 2.94 µM (inactive) in the assay on DLD-1; 6.53 µM (inactive) in the assay on SNB-78; 2.43 µM (inactive) in the assay on LXFL 529; 4.99 µM (inactive) in the assay with KM-20L2; 1.95 µM (inactive) with DMS-273. Moreover, the GI50 was 6 µM (inactive) in the assay with RXF 631 and 4.55 µM (inactive) with HOP-18.
As to `O=C1N2Cc3c4ccc5c3CN3C(=O)N6Cc7c(ccc(c7CN1C6(c1ccccc1)C23c1ccccc1)OCCOCCNCCOCCO4)OCCOCCNCCOCCO5` (stereo not drawn), the GI50 in the assay with M19-MEL is 24.9 µM (inactive); in the assay on DLD-1 it was > 100 µM (inactive); in the assay with SNB-78, > 100 µM (inactive); with LXFL 529 it was 13.7 µM (inactive); with KM-20L2 it was 52.4 µM (inactive); with XF498, 60.1 µM (inactive). Moreover, the GI50 in the assay on DMS-273 was 41.2 µM (inactive); in the assay on RXF 631 it was 31.4 µM (inactive); in the assay with HOP-18, 14.4 µM (inactive).
On to `CC1CCC2(C(=O)O)CCC3(C)C(=CCC4C5(C)CCC(O)C(C)(C)C5CCC43C)C2C1C` (stereo not drawn), for which the GI50 in the assay on M19-MEL was 8.17 µM (inactive); in the assay on DLD-1 it was 6.53 µM (inactive); with SNB-78, 13.3 µM (inactive); with KM-20L2 it was 8.24 µM (inactive); in the assay on XF498 it was 5.86 µM (inactive); with DMS-273 it was 10.9 µM (inactive). The GI50 in the assay on HOP-18 was 15.5 µM (inactive).
`CCN(C(=N)C#N)c1ccccc1`: the GI50 in the assay with M19-MEL was > 55.1 µM (inactive); in the assay on DLD-1 it was > 40.7 µM (inactive); in the assay on LXFL 529, > 100 µM (inactive); with KM-20L2 it was > 100 µM (inactive); with DMS-273, > 42.5 µM (inactive); in the assay with RXF 631 it was > 100 µM (inactive). For the same molecule, the GI50 with HOP-18 is > 100 µM (inactive).
